pIC50: −log10 of the molar value.
Test system: 521955-158-R2-J5-PDC complex spheroids, viability
Assay: Anticancer human tumor 521955-158-R2-J5-PDC patient-derived pancreatic carcinoma cell line growth inhibition [RAS]
Settings: for pIC50: curve of first compound; for viability, T/C: stronger effect = lower value
Summary of the method: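 Agents were tested in combination matrices in half-log decrements from a top concentration at or near clinical Cmax (10 microM if undetermined). Targets were multi-cell spheroids of tumour lines plus HUVEC and MSC stromal cells.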
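Note: compound exposure lasted seven days before the viability read.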
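Throughout, for viability, T/C: spheroids also contain HUVEC endothelial cells and mesenchymal stem cells as stroma.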

SMILES: CCc1c2c(nc3ccc(O)cc13)-c1cc3c(c(=O)n1C2)COC(=O)[C@]3(O)CC + C=CC(=O)N1CCN(c2nc(OCC3CCCN3C)nc3c(F)c(-c4nc(N)cc(C)c4C(F)(F)F)c(Cl)cc23)C(C)C1
- pIC50 (second compound 0.00316 µM): 8.64
- pIC50 (second compound 0.01 µM): 8.63
- pIC50 (second compound 0.0316 µM): 8.46
- pIC50 (second compound 0.1 µM): 8.60
- pIC50 (second compound 0.316 µM): 8.66
- pIC50 (second compound 1 µM): 8.55
- viability, T/C (second compound 0.00316 µM, first compound 0.000949 µM): 82.8%
- viability, T/C (second compound 0.00316 µM, first compound 0.003 µM): 39.5%
- viability, T/C (second compound 0.00316 µM, first compound 0.00949 µM): 20.3%
- viability, T/C (second compound 0.00316 µM, first compound 0.03 µM): 7.87%
- viability, T/C (second compound 0.00316 µM, first compound 0.0949 µM): 6.75%
- viability, T/C (second compound 0.00316 µM, first compound 0.3 µM): 6.61%
- viability, T/C (second compound 0.01 µM, first compound 0.000949 µM): 68.7%
- viability, T/C (second compound 0.01 µM, first compound 0.003 µM): 45.3%
- viability, T/C (second compound 0.01 µM, first compound 0.00949 µM): 18.4%
- viability, T/C (second compound 0.01 µM, first compound 0.03 µM): 8.97%
- viability, T/C (second compound 0.01 µM, first compound 0.0949 µM): 8.82%
- viability, T/C (second compound 0.01 µM, first compound 0.3 µM): 4.69%
- viability, T/C (second compound 0.0316 µM, first compound 0.000949 µM): 72.5%
- viability, T/C (second compound 0.0316 µM, first compound 0.003 µM): 55.2%
- viability, T/C (second compound 0.0316 µM, first compound 0.00949 µM): 13.7%
- viability, T/C (second compound 0.0316 µM, first compound 0.03 µM): 11.2%
- viability, T/C (second compound 0.0316 µM, first compound 0.0949 µM): 8.98%
- viability, T/C (second compound 0.0316 µM, first compound 0.3 µM): 5.11%
- viability, T/C (second compound 0.1 µM, first compound 0.000949 µM): 63%
- viability, T/C (second compound 0.1 µM, first compound 0.003 µM): 47.7%
- viability, T/C (second compound 0.1 µM, first compound 0.00949 µM): 15.2%
- viability, T/C (second compound 0.1 µM, first compound 0.03 µM): 9.23%
- viability, T/C (second compound 0.1 µM, first compound 0.0949 µM): 6.92%
- viability, T/C (second compound 0.1 µM, first compound 0.3 µM): 5.21%
- viability, T/C (second compound 0.316 µM, first compound 0.000949 µM): 83.2%
- viability, T/C (second compound 0.316 µM, first compound 0.003 µM): 38%
- viability, T/C (second compound 0.316 µM, first compound 0.00949 µM): 13%
- viability, T/C (second compound 0.316 µM, first compound 0.03 µM): 6.67%
- viability, T/C (second compound 0.316 µM, first compound 0.0949 µM): 7.68%
- viability, T/C (second compound 0.316 µM, first compound 0.3 µM): 4.95%
- viability, T/C (second compound 1 µM, first compound 0.000949 µM): 84.2%
- viability, T/C (second compound 1 µM, first compound 0.003 µM): 48.2%
- viability, T/C (second compound 1 µM, first compound 0.00949 µM): 13.4%
- viability, T/C (second compound 1 µM, first compound 0.03 µM): 9.97%
- viability, T/C (second compound 1 µM, first compound 0.0949 µM): 6.39%
- viability, T/C (second compound 1 µM, first compound 0.3 µM): 4.12%

SMILES: O=C(c1ccc(F)c(F)c1Nc1ccc(I)cc1F)N1CC(O)([C@@H]2CCCCN2)C1 + C=CC(=O)N1CCN(c2nc(OCC3CCCN3C)nc3c(F)c(-c4nc(N)cc(C)c4C(F)(F)F)c(Cl)cc23)C(C)C1
- pIC50 (second compound 0.00316 µM): 7.64
- pIC50 (second compound 0.01 µM): 7.85
- pIC50 (second compound 0.0316 µM): 7.43
- pIC50 (second compound 0.1 µM): 7.40
- pIC50 (second compound 0.316 µM): 7.14
- pIC50 (second compound 1 µM): 7.57
- viability, T/C (second compound 0.00316 µM, first compound 0.00316 µM): 93%
- viability, T/C (second compound 0.00316 µM, first compound 0.01 µM): 58%
- viability, T/C (second compound 0.00316 µM, first compound 0.0316 µM): 48%
- viability, T/C (second compound 0.00316 µM, first compound 0.1 µM): 36.6%
- viability, T/C (second compound 0.00316 µM, first compound 0.316 µM): 29.8%
- viability, T/C (second compound 0.00316 µM, first compound 1 µM): 23.3%
- viability, T/C (second compound 0.01 µM, first compound 0.00316 µM): 84.2%
- viability, T/C (second compound 0.01 µM, first compound 0.01 µM): 45.3%
- viability, T/C (second compound 0.01 µM, first compound 0.0316 µM): 45.7%
- viability, T/C (second compound 0.01 µM, first compound 0.1 µM): 38.2%
- viability, T/C (second compound 0.01 µM, first compound 0.316 µM): 31.4%
- viability, T/C (second compound 0.01 µM, first compound 1 µM): 19.6%
- viability, T/C (second compound 0.0316 µM, first compound 0.00316 µM): 65.2%
- viability, T/C (second compound 0.0316 µM, first compound 0.01 µM): 62.1%
- viability, T/C (second compound 0.0316 µM, first compound 0.0316 µM): 44.4%
- viability, T/C (second compound 0.0316 µM, first compound 0.1 µM): 47.2%
- viability, T/C (second compound 0.0316 µM, first compound 0.316 µM): 33.2%
- viability, T/C (second compound 0.0316 µM, first compound 1 µM): 21.5%
- viability, T/C (second compound 0.1 µM, first compound 0.00316 µM): 65%
- viability, T/C (second compound 0.1 µM, first compound 0.01 µM): 61.3%
- viability, T/C (second compound 0.1 µM, first compound 0.0316 µM): 44.8%
- viability, T/C (second compound 0.1 µM, first compound 0.1 µM): 50.8%
- viability, T/C (second compound 0.1 µM, first compound 0.316 µM): 31.2%
- viability, T/C (second compound 0.1 µM, first compound 1 µM): 24.1%
- viability, T/C (second compound 0.316 µM, first compound 0.00316 µM): 97%
- viability, T/C (second compound 0.316 µM, first compound 0.01 µM): 66.4%
- viability, T/C (second compound 0.316 µM, first compound 0.0316 µM): 62.6%
- viability, T/C (second compound 0.316 µM, first compound 0.1 µM): 48.1%
- viability, T/C (second compound 0.316 µM, first compound 0.316 µM): 33.8%
- viability, T/C (second compound 0.316 µM, first compound 1 µM): 20.3%
- viability, T/C (second compound 1 µM, first compound 0.00316 µM): 80.2%
- viability, T/C (second compound 1 µM, first compound 0.01 µM): 65.4%
- viability, T/C (second compound 1 µM, first compound 0.0316 µM): 42.6%
- viability, T/C (second compound 1 µM, first compound 0.1 µM): 39.3%
- viability, T/C (second compound 1 µM, first compound 0.316 µM): 32.5%
- viability, T/C (second compound 1 µM, first compound 1 µM): 22.6%

From PubChem BioAssay AID2060900 (Molecular Pharmacology Branch, DTP, NCI, 2025)
